Measured values from patent US4460576A, “Peptide and hormone agent containing the same as effective ingredient” (Kaken Pharmaceutical Co., Ltd., priority 1982, dated 1984).
“And” between values parts separate entries of the source, which are not always exact repeats. Identical values can stand only once. Positions of bridges follow the written chain, without caps; N, C: chain ends. Residues, ends and D or L forms follow the SMILES beside them. No end group written: not given here.

Key:
Male Wistar rats = experiment: GH-releasing activity of [Gln^16 ]--GH--RH in vivo, plasma GH by RIA (Pharmacological Test Example 3); design: species or system rat; conditions: for GH Concentration, individual rats / GH Concentration Mean ± S.E.: plasma; for GH Concentration, individual rats: rats G, H, I, J, K, L in order; for GH Concentration Mean ± S.E.: procedure of Test Example 2, six rats G to L
Method: Male Wistar rats of 10 weeks old were used. The rats were anesthetized with pentobarbital administered intraperitoneally (i.p.) in a dosage of 50 mg./kg. and fixed. Silastic tube (Dow Corning 0.020 in I.D., by 0.037 in O.D.) cannula of 3.5 cm was inserted to the heart side of right jugular vein in the rat. In the rat with chronic vein-cannula in plant, the other side of the cannula was taken out by 3 cm. from backside of neck and fixed on outer layer of skin.
From the cannula was injected 0.5 ml. of 20 units/ml. heparin, and then the cannula was pluged with a stainless-steel wire stopper. The rats were subjected to injecting of GH--RH and blood-gathering under non-anesthetic condition on the next day. Chlorpromazine hydrochloride was administered i.p. before 4 hrs. of injection in a dosage of 2 mg./kg. Four rats (D to G) received injection from the cannula of 440 μg./kg. of GH--RH obtained from salmon in Example 1. Three rats (A to C) received physiological saline as a control.
From each rat, 0.5 ml. of blood was gathered before 15 minutes of injection and after 15, 30, 60, 120 and 180 minutes of injection.
The gathered blood was centrifuged at 2,000×g for 10 minutes. For measuring GH-releasing activity, the supernatant (plasma) was assayed by means of a radio immuno assay (hereinafter referred to as "RIA") according to a double antibody method (see C. A. Birge et al Endocrinology 81, p.195 (1967)). The RIA of rat GH was carried out by employing NIH kit. The results are shown in Table 4 and FIG. 8 in which symbols A to G described in Table 4 correspond to those described in FIG. 8.
The procedure of Pharmacological Test Example 2 was repeated except that six rats were used, respectively, as to the group receiving [Gln^16 ]--GH--RH and as to the group receiving physiological saline and the blood-gathering was carried out before 15 minutes of injection and after 15, 30, 60, 120, 180, 240 and 300 minutes, respectively, of injection.

[1] = R. Guillemin et al, Science, 218, p.585 (1982); cited from earlier work
[2] = tested on: anterior pituitaries obtained from male Wistar Rats; experiment: GH release from pieces of rat anterior pituitaries on a column, radioimmunoassay (Pharmacological Test Example 1); format: cell-based
Method: Small pieces of anterior pituitaries obtained from male Wistar Rats were placed on top of a column being an injection cylinder having one […] diameter packed with 0.3 to 0.5 ml. of Sephadex G 25 equilibrated with a Krebs-Ringer buffer solution containing 0.1% calf serum at a flow rate of 0.5 ml./min. On the column were chromatographed 1 ml. of a control solution (a Klebs-Ringer buffer solution), 1 ml. of 2 μg./ml. solution of TRH and 1 ml. of 2 μg./ml. solution of the GH--RH obtained in Example 1 in that order. The column effluent was collected in 1 ml.-fractions and each fraction was analyzed by means of a radioimmunoassay with an anti-rat GH antibody (NIH standard) to determine an amount of the released rat GH in the assay.

With `CSCC[C@@H]1NC(=O)[C@@H](NC(=O)[C@H](CCCNC(=N)N)NC(=O)[C@H](CCSC)NC(=O)[C@@H](NC(=O)[C@@H](N)CC(=O)O)[C@@H](C)O)CSSC[C@@H](C(=O)N[C@@H](Cc2c[nH]c3ccccc23)C(=O)N[C@@H](CCC(N)=O)C(=O)N[C@H](C(=O)O)C(C)C)NC(=O)[C@@H]2CCCN2C(=O)[C@H](CCCNC(=N)N)NC(=O)[C@H](Cc2ccc(O)cc2)NC(=O)[C@H](C(C)C)NC(=O)[C@H](CCCNC(=N)N)NC(=O)CNC(=O)[C@H](C(C)C)NC1=O` [[Gln^16]--GH--RH] (H-DTMRCMVGRVYRPCWQV-OH; disulfide 5-14) the “increase of GH concentration in plasma compared with the control group” value (Male Wistar rats; FIG. 9) was “evident increase of GH concentration in plasma was observed from 30 to 60 minutes after injection”, the “GH Concentration, individual rats” value (Male Wistar rats; 15 min after injection) was 10.04 μIU/ml. and 9.76 μIU/ml. and 7.20 μIU/ml. and 11.52 μIU/ml. and 7.64 μIU/ml. and 8.08 μIU/ml and the “GH Concentration, individual rats” value (Male Wistar rats; 30 min after injection) was 9.80 μIU/ml. and 7.72 μIU/ml. and 34.84 μIU/ml. and 8.36 μIU/ml. and 30.68 μIU/ml. and 57.80 μIU/ml. The “GH Concentration, individual rats” value (Male Wistar rats; 60 min after injection) was 56.52 μIU/ml. and 47.00 μIU/ml. and 63.40 μIU/ml. and 115.36 μIU/ml. and 21.48 μIU/ml. and 44.88 μIU/ml, the “GH Concentration, individual rats” value (Male Wistar rats; 120 min after injection) was 22.48 μIU/ml. and 29.32 μIU/ml. and 23.56 μIU/ml. and 18.08 μIU/ml. and 13.24 μIU/ml. and 11.52 μIU/ml and the “GH Concentration, individual rats” value (Male Wistar rats; 180 min after injection) was 10.08 μIU/ml. and 9.72 μIU/ml. and 10.56 μIU/ml. and 10.24 μIU/ml. and 9.48 μIU/ml. and 8.20 μIU/ml. The “GH Concentration, individual rats” value (Male Wistar rats; 240 min after injection) was 25.84 μIU/ml. and 8.36 μIU/ml. and 30.00 μIU/ml. and 36.48 μIU/ml. and 7.80 μIU/ml. and 11.52 μIU/ml, the “GH Concentration, individual rats” value (Male Wistar rats; 300 min after injection) was 12.36 μIU/ml. and 12.08 μIU/ml. and 10.32 μIU/ml. and 16.64 μIU/ml. and 12.96 μIU/ml. and 10.76 μIU/ml and the “GH Concentration, individual rats” value (Male Wistar rats; -15 min (before injection)) was 10.52 μIU/ml. and 9.36 μIU/ml. and 8.56 μIU/ml. and 6.32 μIU/ml. and 7.20 μIU/ml. and 8.96 μIU/ml. For the same compound, the “GH Concentration Mean ± S.E.” value (Male Wistar rats; 15 min after injection) was 9.04 ± 0.68 μIU/ml, the “GH Concentration Mean ± S.E.” value (Male Wistar rats; 30 min after injection) was 24.87 ± 8.19 μIU/ml and the “GH Concentration Mean ± S.E.” value (Male Wistar rats; 60 min after injection) was 58.11 ± 12.84 μIU/ml. The “GH Concentration Mean ± S.E.” value (Male Wistar rats; 120 min after injection) was 19.70 ± 2.75 μIU/ml, the “GH Concentration Mean ± S.E.” value (Male Wistar rats; 180 min after injection) was 9.71 ± 0.34 μIU/ml and the “GH Concentration Mean ± S.E.” value (Male Wistar rats; 240 min after injection) was 20.00 ± 5.04 μIU/ml. For the same compound, the “GH Concentration Mean ± S.E.” value (Male Wistar rats; 300 min after injection) was 12.52 ± 0.92 μIU/ml, the “GH Concentration Mean ± S.E.” value (Male Wistar rats; -15 min (before injection)) was 8.49 ± 0.62 μIU/ml and the GH-releasing effect (Male Wistar rats; rats in vivo) was “has a GH-releasing effect”.
In the case of “hpGRF: GH-releasing factor isolated from human pancreatic cancer (YADAIFTNSYRKVLGQLSARKLLQDIMSRQQGESNQERGARARL; ends and bridges not checked; UniProt P01286 32-75, looked up)”, the “time after injection at which increase of GH is shown” value [1] is given as 5 min.
In the case of thyrotropic releasing hormone [TRH], the “Amount of Released Rat GH” value ([2]; 1 ml. of 2 μg./ml. solution on the column, RIA with anti-rat GH antibody) is reported as 300 ng/mL and the “releasing manner of GH” value ([2]; elution profile of released GH) is reported as “broad”.
